Measured values from patent publication US20050136488A1, “Cellular membrane protein assay” (priority 2003, published 2005).
Like-named read-outs stand apart in the source and are kept apart here.

How the values were obtained:
[1] = tested on: GLUT4-PL in CHO/pGLUT4-PL.1 cells; conditions: 30 min, serum-containing media, thrombin 20 units/ml
Description: In this experiment, CHO/pGLUT4-PL.1 cells were treated for 30 min with 0, 0.1, 1, and 10 μM insulin in serum-containing media. The liquid above the cells was then replaced with buffer containing thrombin at 20 units/ml and processed for the intact-cell EFC assay.
1) Seed cells into individual wells at a density of 10,000 cells in 100 μl media. For transient transfectants, replace the media above cells with fresh media one day post-transfection. Perform the intact-cell EFC assay two days after seeding the cells. To assay GLUT4-PL at the cell surface under basal growth conditions (serum-containing media, no exogenous insulin), proceed to step 3.
2) For insulin induction, add 20 μl/well of insulin diluted in media to 6× system concentration (e.g., add 20 μl of 6 μM insulin to the 100 μl liquid above cells to achieve an insulin system concentration of 1 μM). Return plate to incubator for 30 min. Starving cells of serum 2-to-4 hours prior to adding insulin diluted in serum-free media may achieve a larger insulin-response window.
3) Remove the media above the cells by aspiration. Add 50 μl/well thrombin solution (20 units/ml thrombin; 1×PBS; 0.1 mg/ml BSA; 10 mM each KF and NaAzide (NaN3)). Return plate to incubator for 1 hr. […]
5) Add 30 μl/well CL Substrate. […] Readings are taken at periodic intervals from 15 min to 1 hr on a luminescence plate reader.

[2] = biological target: T1, GLUT4-PL in CHO/pGLUT4-PL.1 cells (Homo sapiens, UniProt P14672, INS67[…]); experiment: intact-cell EFC assay, thrombin release of ProLabel from GLUT4-PL; type: cell-based; conditions: thrombin 60 units/ml, intact CHO cells expressing pGLUT4-PL.1
T1 construct: expressed in transfected cells; host or cells: CHO cells transfected with plasmid pGLUT4-PL.1
T1 sequence (P14672 with tags, fused parts or gaps INS67[withheld]): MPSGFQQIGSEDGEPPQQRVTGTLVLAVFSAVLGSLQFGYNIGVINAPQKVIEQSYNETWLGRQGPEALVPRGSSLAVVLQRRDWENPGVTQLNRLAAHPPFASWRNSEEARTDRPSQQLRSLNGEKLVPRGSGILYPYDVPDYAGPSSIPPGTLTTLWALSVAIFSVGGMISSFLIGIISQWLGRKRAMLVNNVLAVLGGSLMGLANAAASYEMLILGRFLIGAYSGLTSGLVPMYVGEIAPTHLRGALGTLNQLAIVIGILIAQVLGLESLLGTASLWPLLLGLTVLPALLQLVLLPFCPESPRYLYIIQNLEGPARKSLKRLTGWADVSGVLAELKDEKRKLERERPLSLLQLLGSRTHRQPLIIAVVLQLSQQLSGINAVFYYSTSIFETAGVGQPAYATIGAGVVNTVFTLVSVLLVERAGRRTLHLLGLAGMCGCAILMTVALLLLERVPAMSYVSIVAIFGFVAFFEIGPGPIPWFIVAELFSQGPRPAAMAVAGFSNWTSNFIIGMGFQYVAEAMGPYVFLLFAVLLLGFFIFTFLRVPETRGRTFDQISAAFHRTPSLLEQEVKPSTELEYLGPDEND
Description: Detection of GLUT4-PL after protease cleavage. Central to the concept of using EFC to monitor GLUT4-PL at the cell surface is the proteolytic release of the internal ProLabel tag from the protein's first exofacial loop. Initial studies were therefore directed at developing and characterizing an intact-cell EFC protocol using thrombin protease. All of the experiments described below were carried out in 96-well assay plates. To test whether thrombin treatment could enhance EFC signal, intact cells expressing pGLUT4-PL.1 were treated with 50 μl buffer alone or buffer containing thrombin at increasing concentrations. Eighty μl of a solution containing EA and the protease inhibitor AEBSF (7.5 mM final concentration) were added subsequently, followed by 30 μl of chemiluminescent substrate. Thrombin treatment led to a dose-dependent enhancement of EFC activity, with 60 units/ml enhancing EFC activity 4.4-fold over untreated cells (FIG. 4). To test whether thrombin proteolytic activity per se, and not a non-specific component of the thrombin formulation was responsible for the increased EFC signal, a control experiment was performed by inactivating thrombin with AEBSF prior to its addition to cells.

HeLa/IκB-PL cells = experiment: cell integrity control, intact-cell EFC assay on cells expressing cytoplasmic reporter IκB-PL; type: cell-based; conditions: series of increasing thrombin concentrations
Description: CHO/pGLUT4-PL.1 and HeLa/IκB-PL cells were assayed in parallel with a series of increasing thrombin concentrations (FIG. 6). As had been observed above, thrombin treatment of CHO/pGLUT4-PL.1 cells led to a dose-dependent increase in EFC activity.

[3] = biological target: GLUT4-ProLabel fusion protein encoded by plasmid pGLUT4-PL.1 (human); experiment: cell-based or functional assay
GLUT4-ProLabel fusion protein encoded by plasmid pGLUT4-PL.1 (human), sequence (chain, as listed by the source limits assumed): as the sequence (P14672 with tags, fused parts or gaps INS67[withheld]) above

With insulin the “increase in EFC activity relative to the no-insulin control” value ([1]; 1 μM insulin) was 15% and the “increase in EFC activity relative to the no-insulin control” value ([1]; 10 μM insulin) was 40%.

In the case of thrombin, the “enhancement of EFC activity over untreated cells” value [2] is reported as 4.4 fold and the “dose-dependent increase in EFC activity (cell integrity)” value (HeLa/IκB-PL cells) is reported as “no such increase was observed”.

thrombin protease (enzyme) showed an EFC activity (enzyme fragment complementation, chemiluminescence) of intact CHO/pGLUT4-PL.1 cells [3] of 4.4 fold.
